The values that follow come from US20230331655A1, “HYDROXYN[…] AND METHODS OF USE THEREOF” (UNIVERSITY OF MARYLAND, BALTIMORE, priority 2020, published 2023).

This assay relates to Male CD-1 mice. The experiment in a line: mouse forced swim test, immobility time 24 h after treatment. It is filed as in vivo. The following applies: for Holm-Šídák post-hoc comparison, group compared vehicle (p, immobility time) / minimum effective dose to reduce immobility time in the forced swim test / doses at which immobility time in the forced swim test was reduced (effective doses): 24 h after treatment; for minimum effective dose to reduce immobility time in the forced swim test / shape of dose response in the forced swim test / doses at which immobility time in the forced swim test was reduced (effective doses): male mice, i.p.; for shape of dose response in the forced swim test: tested range up to 100 mg/kg; for doses at which immobility time in the forced swim test was reduced (effective doses): relative to vehicle. As to the method:
Animals: Male CD-1 mice (Charles Rivers Laboratories; Raleigh, NC, USA), 8-11 weeks old at the time of testing, were habituated to the University of Maryland (Baltimore, MD, USA) animal facility for at least one week prior to testing. Mice were group housed in cages of 4-5 per cage with a constant 12-hour light cycle (lights on/off at 07:00/19:00). Food and water were available ad libitum. All experiments were performed during the light phase. All studies were approved by the University of Maryland School of Medicine Animal Care and Use Committee and conducted in accordance with the National Institutes of Health Guide for the Care and Use of Laboratory Animals.
Drugs: (2R,6R)-HNK hydrochloride, (2S,6S)-HNK hydrochloride, (2R,6S)-HNK, and (2S,6R)-HNK were synthesized and characterized (molecular structures were confirmed via ^1H and ^13C NMR, the absolute and relative stereochemistry was assigned by x-ray crystallography, and the purity was determined via LC/MS) at the National Center for Advancing Translation Sciences (National Institutes of Health, Rockville, MD, USA). The synthesis and characterization of (2R,6R)-HNK hydrochloride, (2S,6S)-HNK hydrochloride, (2R,6S)-HNK, and (2S,6R)-HNK were performed as previously described in Morris et al., 2017, Org. Lett. 19:4572-4575, which is incorporated by reference herein in its entirety. (5R)-methyl-(2R,6R)-HNK was obtained from Organix Inc. (Woburn, MA, USA). (5R)-methyl-(2R,6R)-HNK can be synthesized according to the method described in Example 1. All compounds were dissolved in 20% (w/v) cyclodextrin (Sigma Aldrich, USA) in saline and administered intraperitoneally (i.p.) in a volume of 7.5 ml/kg.
Forced swim test: Compounds were tested in separate cohorts of male mice (n=10-18/group; only male mice were tested to control for sex-dependent differences in pharmacokinetics and brain levels) and all injections were performed by a experimenter. (2R,6R)-HNK, (2S,6S)-HNK, (2R,6S)-HNK, (2S,6R)-HNK were administered at the doses of 1, 3, 10, 30, and 100 mg/kg. (5R)-methyl-(2R,6R)-HNK was administered at the doses of 0.3, 1, 3, and 10 mg/kg. (2R,6S)-HNK and (2S,6R)-HNK were dosed as a free base whereas (2R,6R)-HNK and (2S,6S)-HNK, and (5R)-methyl-(2R,6R)-HNK were dosed as a hydrochloride salt. Vehicle and (2R,6R)-HNK (30 mg/kg) were included as controls in each cohort. Twenty-four h after treatment, mice were tested in the forced swim test, according to previously described methods. Injections were performed by a experimenter. Briefly, mice were placed into a clear Plexiglass cylinder (20 cm height×15 cm diameter) filled to a depth of 15 cm with water (23±1° C.) and subjected to a 6-min swim session. Swim sessions were recorded using a digital video camera. The time spent immobile (defined as passive floating with no movements other than those necessary to keep the head above water) was scored during the final 4 min of the session. Sessions were scored by a trained experimenter blind to the treatment groups.
Statistical analysis: All experiments and analyses were performed in a blinded and randomized manner. All injections were performed by a experimenter. Statistical analyses were performed using GraphPad Prism software (v8; GraphPad Software, Inc.). All statistical tests were two-tailed, and significance was assigned at p<0.05. Differences in immobility time were analyzed via one-way ANOVA followed by Holm-Šídák post-hoc comparison (with all groups compared to saline control group) when significance was reached. Significant results are indicated with asterisks in the figures (*p<0.05, **p<0.01, ***p<0.001). Data are presented as the mean±standard error of the mean (SEM).

Each structure is given as a SMILES string.

Regarding `N[C@]1(c2ccccc2Cl)CCC[C@@H](O)C1=O` [(2S,6R)-HNK], the “minimum effective dose to reduce immobility time in the forced swim test” value amounted to 3 mg/kg and the “shape of dose response in the forced swim test” value (from here on “shape of dose response”) was “U-shaped dose response curves”. The “Holm-Šídák post-hoc comparison, group compared vehicle (p, immobility time)” value (1 mg/kg i.p.) is reported as “p = 0.8466”. For the same compound, the “Holm-Šídák post-hoc comparison, group compared vehicle (p, immobility time)” value (3 mg/kg i.p.) is “p = 0.0404”. Moreover, under “10 mg/kg i.p.”, the “Holm-Šídák post-hoc comparison, group compared vehicle (p, immobility time)” value is listed as “p = 0.0404”. Where the note is “30 mg/kg i.p.”, the “Holm-Šídák post-hoc comparison, group compared vehicle (p, immobility time)” value is recorded as “p = 0.8466”. Besides, where the note is “100 mg/kg i.p.”, the “Holm-Šídák post-hoc comparison, group compared vehicle (p, immobility time)” value was “p = 0.8466”.

On to `N[C@]1(c2ccccc2Cl)CCC[C@H](O)C1=O` [(2S,6S)-HNK, (2S,6S)-hydroxynorketamine], for which the “minimum effective dose to reduce immobility time in the forced swim test” value was 30 mg/kg and the “shape of dose response” value is reported as “did not demonstrate U-shaped dose responses”. For the same compound, where the note is “1 mg/kg i.p.”, the “Holm-Šídák post-hoc comparison, group compared vehicle (p, immobility time)” value was “p = 0.9176”. Also, the “Holm-Šídák post-hoc comparison, group compared vehicle (p, immobility time)” value (3 mg/kg i.p.) is given as “p = 0.8804”. Moreover, the “Holm-Šídák post-hoc comparison, group compared vehicle (p, immobility time)” value (10 mg/kg i.p.) was “p = 0.9176”. Moreover, the “Holm-Šídák post-hoc comparison, group compared vehicle (p, immobility time)” value (30 mg/kg i.p.) was “p = 0.0013”. Further, the “Holm-Šídák post-hoc comparison, group compared vehicle (p, immobility time)” value (100 mg/kg i.p.) is on record as “p = 0.0003”.

With `C[C@@H]1CC[C@@](N)(c2ccccc2Cl)C(=O)[C@@H]1O.Cl` [(5R)-methyl-(2R,6R)-HNK, (2R,5R,6R)-2-amino-2-(2-chlorophenyl)-6-hydroxy-5-methylcyclohexan-1-one hydrochloride], the “minimum effective dose to reduce immobility time in the forced swim test” value is recorded as 1 mg/kg and the “doses at which immobility time in the forced swim test was reduced (effective doses)” value was in the range of 1 to 10 mg/kg. Besides, the “Holm-Šídák post-hoc comparison, group compared vehicle (p, immobility time)” value (0.3 mg/kg i.p.) is listed as “p = 0.8074”. For the setting “1 mg/kg i.p.”, the “Holm-Šídák post-hoc comparison, group compared vehicle (p, immobility time)” value is “p = 0.0257”. The “Holm-Šídák post-hoc comparison, group compared vehicle (p, immobility time)” value (3 mg/kg i.p., hydrochloride) was determined as 0.06. For the same compound, for the setting “3 mg/kg i.p., listed as (5R)-Me-(2R,6R)-HNK, hydrochloride”, the “Holm-Šídák post-hoc comparison, group compared vehicle (p, immobility time)” value is given as “p = 0.0671”. For the same compound, the “Holm-Šídák post-hoc comparison, group compared vehicle (p, immobility time)” value (10 mg/kg i.p.) is on record as “p = 0.0026”.

With `N[C@@]1(c2ccccc2Cl)CCC[C@@H](O)C1=O` [(2R,6R)-HNK, (2R,6R)-hydroxynorketamine], the “minimum effective dose to reduce immobility time in the forced swim test” value is recorded as 10 mg/kg and the “shape of dose response” value is “did not demonstrate U-shaped dose responses”. For the same compound, under “1 mg/kg i.p.”, the “Holm-Šídák post-hoc comparison, group compared vehicle (p, immobility time)” value was “p = 0.2332”. Moreover, for the setting “3 mg/kg i.p.”, the “Holm-Šídák post-hoc comparison, group compared vehicle (p, immobility time)” value was “p = 0.2631”. The “Holm-Šídák post-hoc comparison, group compared vehicle (p, immobility time)” value (10 mg/kg i.p.) is recorded as “p = 0.0428”. Moreover, the “Holm-Šídák post-hoc comparison, group compared vehicle (p, immobility time)” value (100 mg/kg i.p.) is listed as “p = 0.0135”.

`N[C@@]1(c2ccccc2Cl)CCC[C@H](O)C1=O` [(2R,6S)-HNK]: the “minimum effective dose to reduce immobility time in the forced swim test” value is 1 mg/kg, the “doses at which immobility time in the forced swim test was reduced (effective doses)” value was determined as 1 mg/kg and the “shape of dose response” value was “U-shaped dose response curves”. Also, the “Holm-Šídák post-hoc comparison, group compared vehicle (p, immobility time)” value (1 mg/kg i.p.) is on record as “p = 0.0457”. The “Holm-Šídák post-hoc comparison, group compared vehicle (p, immobility time)” value (3 mg/kg i.p.) is given as “p = 0.0261”. Besides, for the setting “10 mg/kg i.p.”, the “Holm-Šídák post-hoc comparison, group compared vehicle (p, immobility time)” value is recorded as “p = 0.0261”. For the same compound, the “Holm-Šídák post-hoc comparison, group compared vehicle (p, immobility time)” value (30 mg/kg i.p.) is listed as “p = 0.4950”. In addition, for the setting “100 mg/kg i.p.”, the “Holm-Šídák post-hoc comparison, group compared vehicle (p, immobility time)” value is listed as “p = 0.4950”. In addition, the “fold lower doses than (2R,6R)-HNK for antidepressant-relevant behavioral effects” value (forced swim test) is recorded as 10 fold.
